Results on one compound are retold here after patent publication US20250041267A1, “TREATEMENT FOR CRYOPYRIN ASSOCIATED PERIODIC SYNDROMES (CAPS)” (Zydus Lifesciences Limited, priority 2021, published 2025).

Read-outs that look alike come from different tables or passages of the source.

The nature of data set [1]: Phase 1 single oral dose safety and tolerability in healthy subjects. In kind it is in vivo, human. The settings on record: till 100 mg single dose.
Data set [2] concerns activated THP-1 cells, hPBMCs and whole blood. The experiment in a line: IL-1β and IL-18 secretion from cells treated with LPS and ATP. Type of data set: cell-based, human. How it is done: Compound 11, a potent NLRP3 inflammazome inhibitor blocks the IL-1β and IL-18 secretion from activated THP-1 cells, hPBMCs (Human peripheral blood mononuclear cell) and whole blood treated with LPS (lipopolysaccharide) and ATP (Adenosine triphosphate). For the whole blood assay, human peripheral venous blood was collected from healthy volunteers following the protocol approved by ethics committee. Whole blood was distributed in 96-well plates and primed with LPS (500 ng/mL) for 4 hours. Different concentrations of compound 11 was added in the presence of serum free media. NLRP3 inflammasome was induced with ATP (5 mM) for 1 hour. The supernatant was collected at the end of 1 hour and assayed for released IL-1β using the ELISA method. The inhibition in the cytokine levels was plotted and the half maximal inhibitory concentration was derived.

Data set [3] can be described thus: Phase 1 single oral dose pharmacokinetics in healthy subjects (plasma and urine, LC-MS/MS). Type of data set: in vivo, human. To be noted: for half-life / Cmax / dose excreted: human; for half-life / Cmax: plasma; for half-life: read-out: mean elimination half-life (converted); for dose excreted: urine, read-out: mean cumulative percentage urinary recovery of unchanged compound.

Where [4] appears, read: 25 mg single oral dose, cohort S1.
[5] abbreviates: 50 mg single oral dose, cohort S2.
[6] abbreviates: 100 mg single oral dose, cohort S3.

In general, half-life refers to the time needed for the level to fall by half in the phase considered. Usually Cmax stands for the highest concentration seen after dosing. On to `CN1CCC[C@]1(C)/C=C/S(=O)(=O)NC(=O)Nc1c2c(cc3c1CCC3)CCC2` [Compound 11, (R,E)-2-(1,2-dimethylpyrrolidin-2-yl)-N-((1,2,3,5,6,7-hexahydro-s-indacen-4-yl)carbamoyl)ethene-1-sulfonamide], for which, in data set [1], the safety and tolerability entry was “safe and well tolerated”. Further, the “IL-1β and IL-18 secretion” value in data set [2] is on record as “blocks”. Besides, in data set [3] (setting [4]), the mean plasma clearance was 0.922 ± 0.01 L/h, the “mean volume of distribution” value was 8681.147 ± 929.14 mL, the peak level (Cmax) was 3.39 ± 0.72 µg/mL and the half-life was 6.53 ± 0.67 h. Besides, the dose excreted in data set [3] (setting [4]) is 93.3%. Further, in data set [3] (setting [5]), the mean plasma clearance worked out at 1.238 ± 0.22 L/h, the “mean volume of distribution” value worked out at 10285.52 ± 1174.32 mL, the highest level (Cmax) was 5.72 ± 0.52 µg/mL and the half-life is 5.82 ± 0.47 h. The dose excreted in data set [3] (setting [5]) came to 69.1%. Moreover, in data set [3] (setting [6]), the mean plasma clearance was found to be 1.099 ± 0.15 L/h, the “mean volume of distribution” value stood at 9847.576 ± 825.72 mL, the half-life is 6.28 ± 0.65 h and the dose excreted was 76.6%. The half-life in data set [3] (oral, across all three doses (25, 50, 100 mg)) is 6 to 6.5 h.
